Experimental data reported in patent publication US10059667B2, “Antidiabetic compounds” (MERCK SHARP & DOHME CORP., priority 2014, dated 2018).

Columns and labels:
Assay type in all cases: cell-based
Human GPR40 [1] = target: T1, Human GPR40 (Homo sapiens (Human), UniProt O14842); assay: Inositol Phosphate Turnover (IP1) Assay 2, HEK cells stably expressing human GPR40, CisBio IP-One kit; conditions: HEK cells stably expressing human GPR40, 384-well
Method: Human and mouse GPR40 stable cell-lines were generated in CHO cells stably expressing NFAT BLA (Beta-lactamase). A human GPR40 stable cell-line was generated in HEK cells stably expressing the aequorin expressing reporter. The expression plasmids were transfected using lipofectamine (Life Technologies) following manufacturer's instructions. Stable cell-lines were generated following drug selection.
The assay was performed in 384-well format. HEK cells stably expressing human GPR40 were plated at 15,000 cells per well in growth medium (DMEM/10% fetal calf serum). Cell plates were then incubated 16 hours at 37 degrees in a 5% CO2 incubator.
Measurement of Inositol Phosphate Turnover (IP1) was performed using the CisBio IP-One kit (Part number 62IPAPEB). After the 16 hour incubation, the cells were washed with HEPES buffer and 10 ul of stimulation buffer (prepared as described in the kit) was added to each well. In a separate plate, compounds were diluted in DMSO (400-fold over the final concentration in the assay well) and 25 nl was acoustically transferred to the appropriate well in the assay cell plate.
The plates were then incubated for 60 minutes at 37 degrees. 10 ul of detection buffer (also prepared as described in the IP-One kit) was added to each well and the plates were incubated for 60 minutes in the dark. The plates were then read in a Perkin Elmer EnVision or equivalent reader able to measure FRET. Fluorescent ratio of emission at 665 and 620 nm was then converted to IP1 concentration by back calculating from an IP1 standard curve prepared at the time of the assay.

Human GPR40 [2] = target: T1, Human GPR40; assay: Inositol Phosphate Turnover (IP1) Assay 1, HEK cells stably expressing human GPR40, 3H-inositol SPA; conditions: HEK cells stably expressing human GPR40, 96-well
Method in brief: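 HEK cells stably expressing human GPR40, labelled 18 h with 3H-myo-inositol in inositol-free medium with 0.4% human or mouse albumin. LiCl added 20 min at 37 degrees, then compound 60 min at 37 degrees; formic acid lysates counted by YSi SPA beads for inositol phosphates.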

Human GPR40 [3] = target: T1, Human GPR40; assay: FLIPR assay, agonist-induced calcium mobilization in GPR40/CHO NFAT BLA cells
Method in brief: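 Calcium mobilization was measured by FLIPR in CHO NFAT BLA cells stably expressing human GPR40. Cells were seeded one day before the assay and loaded with 8 μM fluo-4 AM for 100 minutes at room temperature in HBSS buffer (20 mM HEPES, 2.5 mM probenecid, 0.1% BSA, pH 7.4), then compounds in assay buffer were added.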

T1 sequence (O14842 whole entry): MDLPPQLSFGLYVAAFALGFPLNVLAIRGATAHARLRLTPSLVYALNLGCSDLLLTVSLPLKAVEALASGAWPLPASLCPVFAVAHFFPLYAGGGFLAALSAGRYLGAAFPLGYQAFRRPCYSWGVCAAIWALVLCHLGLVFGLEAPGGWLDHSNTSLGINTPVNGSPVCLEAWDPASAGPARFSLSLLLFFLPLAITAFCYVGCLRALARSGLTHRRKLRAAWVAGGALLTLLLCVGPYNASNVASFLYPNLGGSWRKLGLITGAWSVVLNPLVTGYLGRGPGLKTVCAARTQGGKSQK

SMILES | EC50 (Human GPR40 [1]) [nM] | EC50 (Human GPR40 [2]) [nM] | EC50 (Human GPR40 [3]) [nM]
C[C@H](C(=O)O)[C@H](c1cccc(OCC2CN(c3cc(C(F)(F)F)ccc3C(F)(F)F)C2)c1)C1CC1 [Example 4, (2S,3R)-3-(3-((1-(2,5-Bis(trifluoromethyl)phenyl)azetidin-3-yl)methoxy)phenyl)-3-cyclopropyl-2-methylpropanoic acid] | – | 485 | 77
C[C@H](C(=O)O)[C@H](c1cccc(OC2CN(Cc3cc(C(F)(F)F)ccc3C(F)(F)F)C2)c1)C1CC1 [Example 32] | – | 764 | 59
C[C@H](C(=O)O)[C@H](c1cccc(OC[C@H]2CCN(Cc3cc(C(F)(F)F)ccc3C(F)(F)F)C2)c1)C1CC1 [Example 33] | – | 158 | 5.3
O=C(O)C[C@H](c1cccc(OC2CC3(CCN(Cc4cc(C(F)(F)F)ccc4C(F)(F)F)C3)C2)c1)C1CC1 (single isomer, unassigned) [Example 5A] | – | 4150 | 455

Continued, values first:

EC50 (Human GPR40 [1]) [nM] | EC50 (Human GPR40 [2]) [nM] | EC50 (Human GPR40 [3]) [nM] | SMILES
96 | – | – | COc1cc(C2CC(COc3cccc([C@H](C4CC4)[C@H](C)C(=O)O)c3)C2)c(F)cn1 (single isomer, unassigned) [Example 90]
7.4 | – | – | COc1cc(C2CC(COc3cccc([C@H](C4CC4)[C@H](C)C(=O)O)c3)C2)c(F)cn1 (single isomer, unassigned) [Example 91]
13 | 23 | – | COc1cc(C2CC(COc3cccc([C@H](C4CC4)[C@H](C)C(=O)O)c3)C2)c(F)cn1 (stereo partly shown) [Example 87]
– | 251 | 8.3 | O=C(O)C[C@H](c1cccc(OCC2CN(Cc3cc(C(F)(F)F)ccc3C(F)(F)F)C2)c1)C1CC1 [Example 49]
– | 273 | 10 | C[C@H](C(=O)O)[C@H](c1cccc(OCC2CCN(Cc3cc(C(F)(F)F)ccc3C(F)(F)F)C2)c1)C1CC1 (stereo partly shown) [Example 34]
